According to ChEMBL document CHEMBL1153249, “Conversion of 4-cyanomethyl-pyrazole-3-carboxamides into CB1 antagonists with lowered propensity to pass the blood-brain-barrier” (Bioorg Med Chem Lett, 2010):
≈ marks a conversion by molar mass, not a printed value.

Experiments:
Cannabinoid receptor 1 [1] = molecular target: T1, Cannabinoid receptor 1 (Homo sapiens, UniProt P21554); assay type: functional, cell-based, CHO-K1
Description: Antagonist activity at human CB1 receptor expressed in CHO-K1 cells assessed as inhibition of CP-55940-induced GTPgammaS binding

[2] = Solubility of the compound; assay type: physicochemical; conditions: read-out: solubility
Cannabinoid receptor 1 [3] = molecular target: T1, Cannabinoid receptor 1; experiment: Displacement of [3H]CP-55940 from human CB1 receptor expressed in CHO-K1 cells; assay type: cell-based
Cannabinoid receptor 1 [4] = molecular target: T1, Cannabinoid receptor 1; experiment: Inverse agonist activity at human CB1 receptor expressed in CHO-K1 cells by GTPgammaS binding assay; assay type: functional, cell-based
[5] = Ratio of drug level in plasma to brain in mouse at 10 mg/kg, po after 6 hrs; assay type: ADME, organism-based; design: dose 10 mg/kg, route oral; conditions: in vivo
[6] = Lipophilicity, log D by chromatography; assay type: physicochemical
[7] = Oral bioavailability in rat; assay type: ADME, organism-based; conditions: in vivo
[8] = Ratio of drug level in plasma to brain in rat at 5 mg/kg, po after 6 hrs; assay type: ADME, organism-based; design: dose 5 mg/kg, route oral; conditions: in vivo
[9] = Stability in rat microsomes assessed as compound remaining after 30 mins; assay type: ADME, Microsome; conditions: read-out: Stability
Cannabinoid receptor 1 [10] = molecular target: T1, Cannabinoid receptor 1; experiment: biochemical; assay type: cell-based, COS-7
Description: Displacement of [3H]CP-55940 from human CB1 receptor expressed in COS7 cells

[11] = Ratio of drug level in plasma to brain in mouse at 10 mg/kg, po after 3 hrs; assay type: ADME, organism-based; design: dose 10 mg/kg, route oral; conditions: in vivo
[12] = Selectivity for human CB1 receptor over CB2 receptor by GTPgammaS binding assay
[13] = Oral bioavailability in mouse; assay type: ADME, organism-based; conditions: in vivo

T1 sequence (P21554 whole entry): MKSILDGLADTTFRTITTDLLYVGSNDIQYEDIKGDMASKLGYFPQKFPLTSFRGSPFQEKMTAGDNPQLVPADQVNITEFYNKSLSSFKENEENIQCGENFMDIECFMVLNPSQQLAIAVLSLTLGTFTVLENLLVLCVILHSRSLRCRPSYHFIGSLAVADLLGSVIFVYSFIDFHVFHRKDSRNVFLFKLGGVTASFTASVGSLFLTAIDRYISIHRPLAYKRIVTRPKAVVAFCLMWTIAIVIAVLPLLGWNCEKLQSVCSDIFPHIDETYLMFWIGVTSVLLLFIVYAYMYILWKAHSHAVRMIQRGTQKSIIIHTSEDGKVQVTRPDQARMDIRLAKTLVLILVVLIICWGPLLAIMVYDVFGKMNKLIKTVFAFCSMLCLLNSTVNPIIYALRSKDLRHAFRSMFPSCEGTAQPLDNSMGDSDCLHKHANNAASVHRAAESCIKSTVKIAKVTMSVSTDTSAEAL

## N=C(N)Cc1c(C(=O)NN2CCOCC2)nn(-c2ccccc2Cl)c1-c1ccc(Cl)cc1
Cannabinoid receptor 1 [1]
  IC50: 26 nM

## N=C(Cc1c(C(=O)NN2CCOCC2)nn(-c2ccccc2Cl)c1-c1ccc(Cl)cc1)NO
Cannabinoid receptor 1 [1]
  IC50: 51 nM

## NC(=O)Cc1c(C(=O)NC2CCN(C(=O)C3CC3)CC2)nn(-c2ccccc2Cl)c1-c1ccc(Cl)cc1
[2]
  solubility: 80 µM (≈ 43.2 µg/mL)
Cannabinoid receptor 1 [3]
  IC50: 3.7 nM
Cannabinoid receptor 1 [4]
  IC50: 1.2 nM
[5]
  Ratio: 6.1
[6]
  chromatographic logD: 2.3

## Cc1ccncc1NC(=O)c1nn(-c2ccccc2Cl)c(-c2ccc(Cl)cc2)c1CC(N)=O
[7]
  bioavailability: 39%
[8]
  Ratio: 1.2
[9]
  remaining at 0.5 h: 63%
[2]
  solubility: 200 µM (≈ 96.1 µg/mL)
Cannabinoid receptor 1 [3]
  IC50: 0.55 nM
Cannabinoid receptor 1 [4]
  IC50: 1.7 nM
Cannabinoid receptor 1 [1]
  IC50: 3 nM
[6]
  chromatographic logD: 2.4

## NC(=O)Cc1c(C(=O)N2CCC(O)(c3ccccc3)CC2)nn(-c2ccccc2Cl)c1-c1ccc(Cl)cc1
[2]
  solubility: 105 µM (≈ 57.7 µg/mL)
Cannabinoid receptor 1 [4]
  IC50: 0.11 nM
Cannabinoid receptor 1 [1]
  IC50: 0.26 nM
[6]
  chromatographic logD: 2.7
Cannabinoid receptor 1 [10]
  IC50: 2.9 nM

## N=C(Cc1c(C(=O)N2CCC(c3ccccc3F)CC2)nn(-c2ccccc2Cl)c1-c1ccc(Cl)cc1)NO
Cannabinoid receptor 1 [1]
  IC50: 0.54 nM

## N=C(Cc1c(C(=O)NN2CCCCC2)nn(-c2ccccc2Cl)c1-c1ccc(Cl)cc1)NO
[11]
  Ratio: 1.2
Cannabinoid receptor 1 [4]
  IC50: 1.3 nM
Cannabinoid receptor 1 [1]
  IC50: 1.8 nM

## NC(=O)Cc1c(C(=O)N2CCC(O)(c3ccccn3)CC2)nn(-c2ccccc2Cl)c1-c1ccc(Cl)cc1
[2]
  solubility: 400 µM (≈ 220 µg/mL)
[12]
  Selectivity ratio: 1000
Cannabinoid receptor 1 [3]
  IC50: 1.9 nM
Cannabinoid receptor 1 [4]
  IC50: 2 nM
[5]
  Ratio: 10.2
Cannabinoid receptor 1 [1]
  IC50: 3.6 nM
[6]
  chromatographic logD: 2.3

## NC(=O)Cc1c(C(=O)N2CCC(c3ncccn3)CC2)nn(-c2ccccc2Cl)c1-c1ccc(Cl)cc1
[2]
  solubility: 1.1 µM (≈ 0.589 µg/mL)
Cannabinoid receptor 1 [3]
  IC50: 1.4 nM
Cannabinoid receptor 1 [4]
  IC50: 0.3 nM
Cannabinoid receptor 1 [1]
  IC50: 0.71 nM
[6]
  chromatographic logD: 2.6

## N=C(Cc1c(C(=O)Nc2ccc(F)cc2)nn(-c2ccccc2Cl)c1-c1ccc(Cl)cc1)NO
Cannabinoid receptor 1 [1]
  IC50: 1.1 nM

## N=C(N)Cc1c(C(=O)NCc2ccc(F)cc2)nn(-c2ccccc2Cl)c1-c1ccc(Cl)cc1
Cannabinoid receptor 1 [4]
  IC50: 0.79 nM
Cannabinoid receptor 1 [1]
  IC50: 1.2 nM

## N=C(Cc1c(C(=O)N2CCC(c3ncccn3)CC2)nn(-c2ccccc2Cl)c1-c1ccc(Cl)cc1)NO
Cannabinoid receptor 1 [1]
  IC50: 21 nM

## NC(=O)Cc1c(C(=O)N2CCC(C(=O)O)(c3ccc(F)cn3)CC2)nn(-c2ccccc2Cl)c1-c1ccc(Cl)cc1
[2]
  solubility: 500 µM (≈ 298 µg/mL)
[13]
  bioavailability: 4%
Cannabinoid receptor 1 [1]
  IC50: 30 nM
[6]
  chromatographic logD: 1.6

## NC(=O)Cc1c(C(=O)N2CCC(c3ccccc3F)CC2)nn(-c2ccccc2Cl)c1-c1ccc(Cl)cc1
Cannabinoid receptor 1 [1]
  IC50: 0.51 nM
